Article PMC6273595, “Study of the Activity and Possible Mechanism of Action of a Reversible Inhibitor of Recombinant Human KAT-2: A Promising Lead in Neurodegenerative and Cognitive Disorders” (Molecules, 2016)
Read-outs that look alike come from different tables or passages of the source.

Key:
[1] = target: T1, KAT-2 (kynurenine aminotransferase-2) (Homo sapiens, UniProt Q8N5Z0); experiment: HPLC assay of KYN to KYNA conversion by recombinant human KAT-2, % inhibition at […]; type: biochemical
T1 construct: gene AADAT; recombinant KAT-2
T1 sequence (Q8N5Z0 30-425): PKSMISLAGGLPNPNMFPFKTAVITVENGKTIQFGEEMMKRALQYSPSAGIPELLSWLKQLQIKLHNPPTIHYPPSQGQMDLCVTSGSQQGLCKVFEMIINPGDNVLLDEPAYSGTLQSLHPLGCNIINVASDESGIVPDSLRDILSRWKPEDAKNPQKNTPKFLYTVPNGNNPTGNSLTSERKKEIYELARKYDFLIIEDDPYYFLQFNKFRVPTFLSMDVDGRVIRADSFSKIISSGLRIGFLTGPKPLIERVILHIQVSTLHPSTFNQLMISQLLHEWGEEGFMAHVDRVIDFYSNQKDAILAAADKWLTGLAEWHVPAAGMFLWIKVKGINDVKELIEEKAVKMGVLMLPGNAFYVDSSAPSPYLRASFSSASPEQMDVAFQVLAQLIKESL

[2] = target: T1, KAT-2 (kynurenine aminotransferase-2); experiment: HPLC assay of KYN to KYNA conversion by recombinant human KAT-2; type: biochemical

CCS(=O)(=O)c1ccc(C(=O)C[C@H](N)C(=O)O)cc1 [(S)-ESBA, (S)-4-(Ethylsulfonyl)benzoylalanine]
inhibition at 200 µM [1]: 20%

C[C@H]1COc2c(N3CCN(N)CC3)c(F)cc3c(=O)c(C(=O)O)cn1c23 [BFF-122]
IC50 ([2]; read-out: IC50): 15 to 20 µM

N[C@H]1Cc2ccccc2N(O)C1=O [PF-04859989]
IC50 [2]: 1 to 3 µM
